Assay results taken from patent US9534059B2, “TIKI inhibitors” (Children's Medical Center Corporation, priority 2012, dated 2017).

How the values were obtained:
Assay type in all cases: in vivo
Tiki1 [1] = target: T1, Tiki1 (Xenopus tropicalis, UniProt F6PTN1); experiment: Time course of Goosecoid expression in MO-injected embryos, whole mount in situ hybridization (FIG. 3G)
T1 construct: Thus the endogenous Tiki1 in the Organizer acts in both Wnt-producing and Wnt-responding cells; endogenous in cells; host or cells: Xenopus embryos (dorsal blastomeres / organizer)
T1 sequence (F6PTN1 24-480): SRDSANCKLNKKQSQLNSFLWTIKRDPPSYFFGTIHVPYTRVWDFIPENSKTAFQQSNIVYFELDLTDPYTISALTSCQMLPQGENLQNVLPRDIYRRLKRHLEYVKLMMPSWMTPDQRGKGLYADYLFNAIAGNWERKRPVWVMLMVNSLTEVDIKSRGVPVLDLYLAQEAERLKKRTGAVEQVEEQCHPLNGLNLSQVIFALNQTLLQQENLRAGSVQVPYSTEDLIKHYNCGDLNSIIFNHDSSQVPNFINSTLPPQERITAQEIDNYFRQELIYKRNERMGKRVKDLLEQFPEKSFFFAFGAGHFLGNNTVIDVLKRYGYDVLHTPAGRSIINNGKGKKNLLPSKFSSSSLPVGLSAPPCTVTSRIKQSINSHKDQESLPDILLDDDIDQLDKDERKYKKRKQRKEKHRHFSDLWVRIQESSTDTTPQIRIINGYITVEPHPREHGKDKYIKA
Procedure: (G) Tiki1MO reduced SO-specific Goosecoid expression at stage 11 but not prior to stage 10.5. Time course of Gsc expression was examined between stage 8.5 and 11. 20 ng of Tiki1MO or control MO was injected into two dorsal blastomeres at the 8-cell stage. After Injection embryos were cultured at 22° C. till indicated stages, and were subjected to whole mount in situ hybridization (vegetal view with dorsal up).
(§1) Procedures for embryo manipulation, reverse transcription PCR and in situ hybridization were performed as previously described (Tamai et al., 2000). The arrayed Xenopus tropicalis full length cDNAs (Voigt et al., 2005) were used for the screening as performed previously (Kato et al., 2002). cDNA pools (in the CS107 vector) that contain 96 independent clones were transcribed in vitro using SP6 polymerase, and the resulting mRNA pools were injected into the dorsal side of the embryo at 4-cell stage at the dose of 10 ng RNA/embryo. Injected embryos were scored at stage 30-31 for enlarged or diminished anterior development. The positive pools were divided into smaller pools and the same process was repeated till a single cDNA was identified.
(§2) The following morpholino oligonucleotides were used: Tiki1 MO: 5′-[…]-3′ (SEQ ID NO:33); standard control MO: 5′-[…]-3′ (SEQ ID NO:34) (Gene Tools, LLC). RT-PCR primers for XTiki1: Forward, 5′-[…]-3′(SEQ ID NO:35), Reverse, 5′-[…]-3′(SEQ ID NO:36); human TIKI1: Forward, 5′-[…]-3′(SEQ ID NO:37), Reverse, 5′-[…]-3′(SEQ ID NO:38); human TIKI2: Forward, 5′-[…]-3′(SEQ ID NO:39), Reverse, 5′-[…]-3′(SEQ ID NO:40).
Further, injection of Tiki1MO in two dorsal blastomeres of 8-cell stage embryos suppressed the expression of head organizer genes including Goosecoid (Gsc), Lim1, Otx2, and Dkk1 in gastrula stage embryos (stages 10.5-11) (FIG. 3D and Table 1). […] HA*Tiki1 mRNA injection rescued the effect of Tiki1MO on all head organizer genes examined (FIG. 3D and Table 1). […] Consistently, Tiki1 inhibited Xwnt8 posterizing effect when both were co-expressed dorsally via injected plasmids, which zygotically express Tiki1 and Xwnt8, respectively, after mid-blastula transition (FIG. 3H).

Tiki1 [2] = target: T1, Tiki1; experiment: MO block of Tiki1 protein synthesis in animal caps, Western blotting; settings: animal caps stage 10
Procedure: (A) 500 pg mRNA for Tiki1-FLAG (targeted by MO) or HA*Tiki1 (resistant to MO) were injected with or without the Tiki1MO (5, 10, 20, 40 ng) into the animal pole at the 2-cell stage, and animal caps were dissected at stage 10 for Western blotting. MO, morpholino antisense oligonucleotide.
20 ng of Tiki1MO were injected into two dorsal blastomeres of 8-cell stage embryos. […] Co-injection of HA*Tiki1 mRNA rescued Tiki1MO phenotypes (FIGS. 3B and 3C). Supporting a role of Tiki1 in Wnt inhibition during head formation, Dkk1 mRNA injection also rescued Tiki1MO anterior deficiency phenotypes (FIG. 3E).

Tiki1 [3] = target: T1, Tiki1; experiment: Anterior neural marker expression at stage 16 in MO-injected embryos, whole mount in situ hybridization (FIG. 3I)
Procedure: (I) Tiki1 is required for anterior neural patterning. 20 ng of control MO or Tiki1MO plus fluorescein dextran (FLD, as a lineage tracer) were injected into one dorsal blastomere at the 8-cell stage. 50 pg of HA*Tiki1 mRNA were injected into the dorsal-animal blastomeres at the 4-cell stage in rescue experiments. Injected embryos were collected at stage 16 and subjected for whole mount in situ hybridization. Expression of forebrain markers BF1 and Otx2 (not shown) and the midbrain marker Ent was reduced in the Tiki1MO-injected half and was rescued by HA*Tiki1.
as §1, §2
The fact that Tiki1 is specifically expressed in, and is required for function of, the head organizer implies that Tiki1 has a role in anterior neural patterning. Tiki1MO were injected with fluorescein dextran (FLD, as a lineage tracer) into one dorsal-animal blastomere at the 8-cell stage and analyzed expression of anterior neural markers at stage 16. Tiki1MO suppressed, in the injected half of the embryo, the expression of forebrain marker BF1 and Otx2 (FIG. 3I and Table 3). […] HA*Tiki1 mRNA injection rescued the expression of BF1, Otx2, and Ent in Tiki1MO-injected embryos (FIG. 3I and Table 3).

Tiki1 MO: morpholino antisense oligonucleotide against Tiki1, 5′-CCAAATGATTACCATCATAGCTCAG-3′ (SEQ ID NO:33) (all phosphorodiamidate morpholino (PMO))
Whole embryos displaying change in Goosecoid expression: Absent, Percentage (%) (Tiki1 [1]; stage 8.5, 20 ng MO): 0% | Whole embryos displaying change in Goosecoid expression: NC (No Change), Percentage (%) (Tiki1 [1]; stage 8.5, 20 ng MO): 100% | Whole embryos displaying change in Goosecoid expression: Reduced, Percentage (%) (Tiki1 [1]; stage 8.5, 20 ng MO): 0% | Whole embryos displaying change in Goosecoid expression: Absent, Percentage (%) (Tiki1 [1]; stage 9.5, 20 ng MO): 13% | Whole embryos displaying change in Goosecoid expression: NC (No Change), Percentage (%) (Tiki1 [1]; stage 9.5, 20 ng MO): 87% | Whole embryos displaying change in Goosecoid expression: Reduced, Percentage (%) (Tiki1 [1]; stage 9.5, 20 ng MO): 0% | Whole embryos displaying change in Goosecoid expression: Absent, Percentage (%) (Tiki1 [1]; stage 10, 20 ng MO): 15% | Whole embryos displaying change in Goosecoid expression: NC (No Change), Percentage (%) (Tiki1 [1]; stage 10, 20 ng MO): 85% | Whole embryos displaying change in Goosecoid expression: Reduced, Percentage (%) (Tiki1 [1]; stage 10, 20 ng MO): 0% | Whole embryos displaying change in Goosecoid expression: Absent, Percentage (%) (Tiki1 [1]; stage 10.5, 20 ng MO): 5% | Whole embryos displaying change in Goosecoid expression: NC (No Change), Percentage (%) (Tiki1 [1]; stage 10.5, 20 ng MO): 80% | Whole embryos displaying change in Goosecoid expression: Reduced, Percentage (%) (Tiki1 [1]; stage 10.5, 20 ng MO): 15% | Whole embryos displaying change in Goosecoid expression: Absent, Percentage (%) (Tiki1 [1]; stage 11, 20 ng MO): 48% | Whole embryos displaying change in Goosecoid expression: NC (No Change), Percentage (%) (Tiki1 [1]; stage 11, 20 ng MO): 27% | Whole embryos displaying change in Goosecoid expression: Reduced, Percentage (%) (Tiki1 [1]; stage 11, 20 ng MO): 25% | Synthesis of exogenously expressed Tiki1-FLAG (Tiki1 [2]; 5, 10, 20, 40 ng MO): specifically blocked the synthesis | Synthesis of HA*Tiki1 (mRNA lacking the MO complementary sequence) (Tiki1 [2]): unable to block the synthesis | Whole embryos displaying change in gene expression: BF1 Absent, Percentage (%) (Tiki1 [3]; gene BF1, stage 16): 63% | Whole embryos displaying change in gene expression: BF1 NC (No Change), Percentage (%) (Tiki1 [3]; gene BF1, stage 16): 14% | Whole embryos displaying change in gene expression: BF1 Reduced, Percentage (%) (Tiki1 [3]; gene BF1, stage 16): 23% | Whole embryos displaying change in gene expression: BF1 increased, Percentage (%) (Tiki1 [3]; gene BF1, stage 16): 0% | Whole embryos displaying change in gene expression: En-2 Absent, Percentage (%) (Tiki1 [3]; gene En-2, stage 16): 40% | Whole embryos displaying change in gene expression: En-2 NC (No Change), Percentage (%) (Tiki1 [3]; gene En-2, stage 16): 35% | Whole embryos displaying change in gene expression: En-2 Reduced, Percentage (%) (Tiki1 [3]; gene En-2, stage 16): 25% | Whole embryos displaying change in gene expression: En-2 increased, Percentage (%) (Tiki1 [3]; gene En-2, stage 16): 0% | Whole embryos displaying change in gene expression: HoxB9 Absent, Percentage (%) (Tiki1 [3]; gene HoxB9, stage 16): 0% | Whole embryos displaying change in gene expression: HoxB9 NC (No Change), Percentage (%) (Tiki1 [3]; gene HoxB9, stage 16): 100% | Whole embryos displaying change in gene expression: HoxB9 Reduced, Percentage (%) (Tiki1 [3]; gene HoxB9, stage 16): 0% | Whole embryos displaying change in gene expression: HoxB9 increased, Percentage (%) (Tiki1 [3]; gene HoxB9, stage 16): 0% | Whole embryos displaying change in gene expression: Otx2 Absent, Percentage (%) (Tiki1 [3]; gene Otx2, stage 16): 35% | Whole embryos displaying change in gene expression: Otx2 NC (No Change), Percentage (%) (Tiki1 [3]; gene Otx2, stage 16): 35% | Whole embryos displaying change in gene expression: Otx2 Reduced, Percentage (%) (Tiki1 [3]; gene Otx2, stage 16): 30% | Whole embryos displaying change in gene expression: Otx2 increased, Percentage (%) (Tiki1 [3]; gene Otx2, stage 16): 0%
